Assay results: US4762843A, “Hetero [f] fused carbocyclic pyridines as dopaminergic agents” (Warner-Lambert Company, priority 1987, dated 1988)
Where a name gives a salt, the structure may show the parent alone. Read-outs that look alike come from different tables or passages of the source.

Legend:
haloperidol binding = target: T1, haloperidol binding (Bos taurus, UniProt P20288); assay: Inhibition of haloperidol binding in a receptor binding assay; settings: read-out: Percent Inhibition Haloperidol Binding
T1 construct: from tissue
T1 sequence (P20288 whole entry): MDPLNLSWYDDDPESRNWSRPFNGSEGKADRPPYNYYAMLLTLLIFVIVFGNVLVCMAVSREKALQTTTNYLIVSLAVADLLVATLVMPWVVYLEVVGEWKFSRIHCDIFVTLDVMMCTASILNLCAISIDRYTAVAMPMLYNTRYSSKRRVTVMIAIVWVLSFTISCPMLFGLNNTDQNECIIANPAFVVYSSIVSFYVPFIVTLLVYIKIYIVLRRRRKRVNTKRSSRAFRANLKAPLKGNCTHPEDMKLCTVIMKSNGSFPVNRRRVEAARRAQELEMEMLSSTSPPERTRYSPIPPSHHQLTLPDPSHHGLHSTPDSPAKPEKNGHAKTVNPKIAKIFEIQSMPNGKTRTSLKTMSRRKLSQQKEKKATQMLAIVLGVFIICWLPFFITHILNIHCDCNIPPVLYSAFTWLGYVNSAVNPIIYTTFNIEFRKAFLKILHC
Procedure: (§1) The compounds of formula I are valuable dopaminergic agents. […] Thus, the compounds of formula I were tested for their ability to inhibit locomotor activity in mice according to the assay described in Pharmacol. Biochem. Behav. 1978 (8) 97; for their ability to inhibit haloperidol binding in a receptor binding assay described in Mol. Pharmacol. 1976 (12) 800; and for their ability to inhibit dopamine synthesis in rats according to the protocol described in Naumyn-Schmiedeberg's Arch. Pharmacol., 1976 (296) 5. The above test methods are incorporated herein by reference.

[1] = test system: locomotor activity in mice; assay: Inhibition of locomotor activity in mice; format: in vivo; settings: Mus musculus, read-out: Inhibition of Locomotor Activity in Mice (ED50)
Procedure: as §1

dopamine synthesis = assay: Inhibition of dopamine synthesis in rats; format: in vivo; settings: Rattus norvegicus, read-out: Percent Inhibition of Dopamine Synthesis
Procedure: as §1

Compound | ED50 ([1]; ip) [mg/kg] | ED50 ([1]; mice, IP) [mg/kg] | inhibition at 5 µM (haloperidol binding) [%] | other results
Nc1nc2c(s1)CCC1C2=CCCN1CC1CC1 (racemic) [Example 5e, (±) 6-(Cyclopropylmethyl)-4,5,5a,6,7,8-hexahydrothiazolo[4,5-f]quinolin-2-amine, dihydrochloride] | 12 | – | – | inhibition at 1 µM (haloperidol binding): 62%
C=CCN1CCC=C2c3nc(NC(C)=O)sc3CCC21 (racemic) [Example 15b, (±) N-[4,5,5a,6,7,8-Hexahydro-6-(2-propenyl)thiazolo [4,5-f]quinolin-2-yl]acetamide] | – | 3.1 | – | inhibition at 10 µM (haloperidol binding; at 1 × 10^-5): 21%; inhibition at 5 mg/kg (dopamine synthesis; rats, at 5 mg/kg): 82%
Nc1nc2c(s1)CCC1NCCC=C21 (racemic) [Example 40, (±) 4,5,5a,6,7,8-Hexahydrothiazolo[4,5-f]quinolin-2-amine, dihydrochloride] | 11.6 | – | 77 | inhibition at 10 mg/kg (dopamine synthesis): 44%
CCCN1CCC[C@H]2c3sc(N)nc3CC[C@@H]21 (racemic) [Example 17, (±) trans-4,5,5a,6,7,8,9,9a-Octahydro-6-propylthiazolo[5,4-f]quinolin-2-amine] | 0.7 | – | – | inhibition at 1 µM (haloperidol binding): 37%; inhibition at 5 mg/kg (dopamine synthesis): 100%
CCCN1CCC=C2c3nc(N)sc3CCC21 (racemic) [Example 5, (±) 4,5,5a,6,7,8-Hexahydro-6-propylthiazolo[4,5-f]quinolin-2-amine] | 5.5 | – | – | inhibition at 1 µM (haloperidol binding): 43%; inhibition at 5 mg/kg (dopamine synthesis): 53%
CN1CCC=C2c3nc(N)sc3CCC21 (racemic) [Example 5a, (±) 4,5,5a,6,7,8-Hexahydro-6-methylthiazolo[4,5-f]quinolin-2-amine] | 2.6 | – | 62 | inhibition at 10 mg/kg (dopamine synthesis): 92%
CCCCN1CCC=C2c3nc(N)sc3CCC21 (racemic) [Example 5c, (±) 6-Butyl-4,5,5a,6,7,8-hexahydrothiazolo[4,5-f]quinolin-2-amine, dihydrochloride, hemihydrate] | 14.7 | – | – | inhibition at 10 µM (haloperidol binding): 70%; inhibition at 10 mg/kg (dopamine synthesis): 18%
CCN1CCC=C2c3nc(N)sc3CCC21 (racemic) [Example 5b, (±) 6-Ethyl-4,5,5a,6,7,8-hexahydrothiazolo[4,5-f]quinolin-2-amine] | 0.62 | – | 68 | inhibition at 1 mg/kg (dopamine synthesis): 60%
CCCN1CCC=C2c3nc(N)sc3CCC21 (single isomer, unassigned; (+)) [Example 16, (+) 4,5,5a,6,7,8-hexahydro-6-propylthiazolo[4,5-f]quinolin-2-amine, dihydrochloride] | 2.5 | – | 76 | inhibition at 3 mg/kg (dopamine synthesis): 100%
CCCN1CCC=C2c3nc(NC(C)=O)sc3CCC21 (racemic) [Example 15a, (±) N-(4,5,5a,6,7,8-Hexahydro-6-propylthiazolo[4,5-f]quinolin-2-yl)acetamide] | – | 16.3 | – | inhibition at 5 µM (haloperidol binding; at 5 × 10^-6 M): 23%
Nc1nc2c(s1)CCC1C2=CCCN1Cc1ccccc1 (racemic) [Example 5g, (±) 4,5,5a,6,7,8-Hexahydro-6-(phenylmethyl)thiazolo [4,5-f]quinolin-2-amine, dihydrochloride, hydrate] | – | 26.1 | – | inhibition at 5 µM (haloperidol binding; at 5 × 10^-6 M): 61%
C=CCN1CCC=C2c3nc(N)sc3CCC21 (racemic) [Example 5d, (±) 4,5,5a,6,7,8-Hexahydro-6-(2-propenyl)thiazolo [4,5-f]quinolin-2-amine, dihydrochloride] | 0.24 | – | – | inhibition at 5 mg/kg (dopamine synthesis): 100%
Nc1nc2c(s1)CCC1C2=CCCN1CCc1ccccc1 (racemic) [Example 5f, (±) 4,5,5a,6,7,8-Hexahydro-6-(2-phenylethyl)thiazolo [4,5-f]quinolin-2-amine] | – | 31.3 | – | inhibition at 5 µM (haloperidol binding; at 5 × 10^-6 M): 67%
